Source: patent US20260207585A1, “METHODS AND COMPOSITIONS FOR THE TREATMENT OF PARKINSON'S DISEASE, HUNTINGTON'S DISEASE, AMYOTROPHIC LATERAL SCLEROSIS, AND LEARNING DISORDERS” (Cedars-Sinai Medical Center, priority 2022, published 2026)
Where two headings read alike, the source gives them in different places.

Key:
[1] = biological target: SET1b Complex (Homo sapiens, UniProt Q9UPS6); test: Methyltransferase inhibition panel: SET1b Complex; assay type: biochemical
Method: (§1) The ability of ETP69 to inhibit methyltransferases was tested.

[2] = biological target: DNMT3b (Homo sapiens, UniProt Q9UBC3); test: Methyltransferase inhibition panel: DNMT3b; assay type: biochemical
Method: as §1

[3] = biological target: DNMT1 (Homo sapiens, UniProt P26358); test: Methyltransferase inhibition panel: DNMT1; assay type: biochemical
Method: as §1

[4] = biological target: SUV39H2 (Homo sapiens, UniProt Q9H5I1); test: Methyltransferase inhibition panel: SUV39H2; assay type: biochemical
Sequence of SUV39H2 (Q9H5I1 whole entry): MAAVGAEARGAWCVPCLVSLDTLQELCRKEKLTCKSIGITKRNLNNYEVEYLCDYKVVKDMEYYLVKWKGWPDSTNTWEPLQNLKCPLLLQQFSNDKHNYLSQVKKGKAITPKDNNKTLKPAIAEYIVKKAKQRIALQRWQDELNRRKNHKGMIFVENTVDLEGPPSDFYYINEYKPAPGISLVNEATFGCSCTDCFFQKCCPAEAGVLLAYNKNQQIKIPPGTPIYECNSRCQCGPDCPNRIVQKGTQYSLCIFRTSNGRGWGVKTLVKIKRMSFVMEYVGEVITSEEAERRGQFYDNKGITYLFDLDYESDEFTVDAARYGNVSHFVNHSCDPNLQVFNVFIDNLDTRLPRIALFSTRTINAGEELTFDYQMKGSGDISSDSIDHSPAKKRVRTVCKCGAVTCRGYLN
Method: as §1

[5] = system: soluble fraction of brain homogenates; test: Mass spectrometry proteomics of brain homogenates with IPA; assay type: in vivo, mice
Method: The results included levodopa (L-dopa), a naturally occurring product that is also a drug for the management of Parkinson's motor symptoms.
Mass spectrometry (MS) analysis on the soluble fraction of brain homogenates extracted from the […] WT and neurodegenerative (AD) mice cohort was performed (DMSO-treated WT mice: n=8; ETP69-treated WT mice: n=7; DMSO-treated AD^+ mice: n=6; ETP69-treated AD^+ n=6).
The effects of ETP69 on the molecular pathways related to neuroprotection and cognitive function was assessed.

[6] = biological target: T1, SMYD3 (Homo sapiens, UniProt Q9H7B4); test: Methyltransferase inhibition panel: SMYD3; assay type: biochemical
T1 sequence (Q9H7B4 1-428): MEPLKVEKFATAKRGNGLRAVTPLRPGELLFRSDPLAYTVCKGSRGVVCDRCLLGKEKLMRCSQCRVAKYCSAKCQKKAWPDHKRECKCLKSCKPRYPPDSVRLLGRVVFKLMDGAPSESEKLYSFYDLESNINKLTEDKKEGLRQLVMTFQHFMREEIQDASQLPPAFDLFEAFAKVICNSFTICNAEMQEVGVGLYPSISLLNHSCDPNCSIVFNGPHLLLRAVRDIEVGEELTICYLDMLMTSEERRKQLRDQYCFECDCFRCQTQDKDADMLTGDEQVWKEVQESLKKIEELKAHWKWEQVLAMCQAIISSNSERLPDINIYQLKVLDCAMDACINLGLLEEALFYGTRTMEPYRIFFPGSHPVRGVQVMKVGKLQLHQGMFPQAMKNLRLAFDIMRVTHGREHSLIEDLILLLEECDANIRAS
Method: as §1

[7] = biological target: EZH2(Y641F) Complex (Homo sapiens, UniProt Q15910, Y641F); test: Methyltransferase inhibition panel: EZH2(Y641F) Complex; assay type: biochemical; conditions: NT1721 20 μM; substrate Core Histone 0.05 mg/mL
Method: as §1

[8] = biological target: SMYD2 (Homo sapiens, UniProt Q9NRG4); test: Methyltransferase inhibition panel: SMYD2; assay type: biochemical
Sequence of SMYD2 (Q9NRG4 whole entry): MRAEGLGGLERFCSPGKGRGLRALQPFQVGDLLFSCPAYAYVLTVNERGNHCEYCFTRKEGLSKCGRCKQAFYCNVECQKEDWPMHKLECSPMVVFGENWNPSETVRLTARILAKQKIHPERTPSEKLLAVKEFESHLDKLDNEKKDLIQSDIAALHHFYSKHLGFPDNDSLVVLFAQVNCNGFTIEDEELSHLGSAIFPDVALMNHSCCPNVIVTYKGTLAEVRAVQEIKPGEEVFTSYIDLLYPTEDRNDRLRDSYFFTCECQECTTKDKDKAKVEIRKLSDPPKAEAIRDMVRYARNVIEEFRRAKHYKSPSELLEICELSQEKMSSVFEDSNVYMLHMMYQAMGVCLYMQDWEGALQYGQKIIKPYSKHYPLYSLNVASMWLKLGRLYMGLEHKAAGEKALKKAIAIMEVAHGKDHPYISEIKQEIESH
Method: as §1

[9] = Delivery to the brain; conditions: in vivo
[10] = biological target: DOT1L (Homo sapiens, UniProt Q8TEK3); test: Methyltransferase inhibition panel: DOT1L; assay type: biochemical
Method: as §1

[11] = biological target: PRMT8 (Homo sapiens, UniProt Q9NR22); test: Methyltransferase inhibition panel: PRMT8; assay type: biochemical
Sequence of PRMT8 (Q9NR22 whole entry): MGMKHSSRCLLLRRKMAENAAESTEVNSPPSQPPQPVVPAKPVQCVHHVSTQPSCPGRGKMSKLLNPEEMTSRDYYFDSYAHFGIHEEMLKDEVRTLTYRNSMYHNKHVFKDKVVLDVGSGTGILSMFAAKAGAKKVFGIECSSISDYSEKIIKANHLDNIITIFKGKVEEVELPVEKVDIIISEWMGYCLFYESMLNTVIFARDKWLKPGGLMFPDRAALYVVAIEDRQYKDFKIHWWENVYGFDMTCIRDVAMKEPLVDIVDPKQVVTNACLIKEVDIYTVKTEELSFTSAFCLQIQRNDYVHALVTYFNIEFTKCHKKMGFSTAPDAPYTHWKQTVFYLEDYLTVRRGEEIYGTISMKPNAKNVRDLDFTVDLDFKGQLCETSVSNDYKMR
Method: as §1

[12] = biological target: SETDB1 (Homo sapiens, UniProt Q15047); test: Methyltransferase inhibition panel: SETDB1; assay type: biochemical
Method: as §1

[13] = system: GFAP; test: GFAP staining of brain sections; assay type: in vivo; conditions: AD+ mice; 4 and 15 days
Source text: ETP69 administration reduced AD-related brain pathology (FIGS. 9A-9C). Brain sections were stained for H3K9me3, 6E10 and GFAP.

[14] = biological target: PRMT5 (C449S)/MEP50 (Homo sapiens, UniProt O14744, C449S); test: Methyltransferase inhibition panel: PRMT5 (C449S)/MEP50; assay type: biochemical
Method: as §1

[15] = biological target: MLL1 Complex (Homo sapiens, UniProt Q03164); test: Methyltransferase inhibition panel: MLL1 Complex; assay type: biochemical
Method: as §1

[16] = biological target: MLL2 Complex (Homo sapiens, UniProt O14686); test: Methyltransferase inhibition panel: MLL2 Complex; assay type: biochemical
Sequence of MLL2 Complex (O14686 5319-5537): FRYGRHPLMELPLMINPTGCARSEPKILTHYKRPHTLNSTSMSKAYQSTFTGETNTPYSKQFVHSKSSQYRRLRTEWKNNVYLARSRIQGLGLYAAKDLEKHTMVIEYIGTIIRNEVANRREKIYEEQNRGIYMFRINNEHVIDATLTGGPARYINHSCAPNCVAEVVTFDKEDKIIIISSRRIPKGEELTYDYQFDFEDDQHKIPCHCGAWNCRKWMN
Sequence of MLL2 Complex (Q9UBL3 whole entry, further chain): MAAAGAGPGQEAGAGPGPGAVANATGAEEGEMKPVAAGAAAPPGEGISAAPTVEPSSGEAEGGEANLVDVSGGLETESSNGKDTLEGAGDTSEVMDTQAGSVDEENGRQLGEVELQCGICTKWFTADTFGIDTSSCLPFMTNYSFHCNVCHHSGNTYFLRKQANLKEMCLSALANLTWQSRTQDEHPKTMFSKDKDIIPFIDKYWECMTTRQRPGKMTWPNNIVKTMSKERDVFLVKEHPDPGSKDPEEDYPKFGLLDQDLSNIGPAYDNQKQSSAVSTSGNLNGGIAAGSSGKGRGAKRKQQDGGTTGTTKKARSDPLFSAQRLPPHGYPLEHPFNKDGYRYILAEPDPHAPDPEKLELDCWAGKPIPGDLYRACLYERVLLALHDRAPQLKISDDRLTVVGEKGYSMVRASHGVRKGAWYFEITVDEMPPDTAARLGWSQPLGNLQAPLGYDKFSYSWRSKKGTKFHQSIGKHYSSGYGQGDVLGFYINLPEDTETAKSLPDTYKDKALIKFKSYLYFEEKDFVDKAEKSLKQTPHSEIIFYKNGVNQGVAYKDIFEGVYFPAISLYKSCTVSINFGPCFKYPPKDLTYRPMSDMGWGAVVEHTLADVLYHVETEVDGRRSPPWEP
Sequence of MLL2 Complex (Q9C005 whole entry, further chain): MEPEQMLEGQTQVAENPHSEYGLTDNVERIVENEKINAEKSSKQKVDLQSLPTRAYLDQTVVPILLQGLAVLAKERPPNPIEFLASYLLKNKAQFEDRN
Sequence of MLL2 Complex (Q15291 whole entry, further chain): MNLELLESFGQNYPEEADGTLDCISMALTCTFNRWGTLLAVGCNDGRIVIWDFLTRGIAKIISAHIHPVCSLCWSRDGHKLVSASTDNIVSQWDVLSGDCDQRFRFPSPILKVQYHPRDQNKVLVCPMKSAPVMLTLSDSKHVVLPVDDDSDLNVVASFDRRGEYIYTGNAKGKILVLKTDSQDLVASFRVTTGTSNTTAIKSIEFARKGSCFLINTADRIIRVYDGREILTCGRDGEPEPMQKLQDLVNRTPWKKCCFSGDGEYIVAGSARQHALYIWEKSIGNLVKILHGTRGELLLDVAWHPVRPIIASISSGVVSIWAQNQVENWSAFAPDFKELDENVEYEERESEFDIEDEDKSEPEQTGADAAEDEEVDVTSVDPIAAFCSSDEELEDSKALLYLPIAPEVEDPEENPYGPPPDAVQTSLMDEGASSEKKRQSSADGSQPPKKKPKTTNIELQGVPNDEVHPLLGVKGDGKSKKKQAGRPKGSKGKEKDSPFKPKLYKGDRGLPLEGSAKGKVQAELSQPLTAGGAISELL
Method: as §1

[17] = system: wildtype and AD model (APP/PS1-transgenic) mice; test: Visual stimuli X-maze (ViS4M) test, colour and contrast modes; assay type: in vivo
Method: (§2) The effects of single and repeated ETP69 injections in mice were tested. The experimental timeline is depicted in FIG. 5. Three parallel injection conditions were tested: a single ETP69 condition, a boosted ETP69 injection, and repeated ETP69 injections. The single injection mice received one injection of ETP69 or DMSO at Day 0. The mice that received a boosted injection received one injection of ETP69 or DMSO at day 0 and one injection at day 9. The mice that received repeated injections received 11 injections of ETP69 or DMSO at day 0 or day 9. Both wildtype and AD model (APP/PS1-transgenic) mice were tested.
FIG. 6C-6F depicts the results of the mice on the color mode of the visual stimuli X-maze test. […] FIG. 6G-611 depict the results of the contrast mode of the visual stimuli X-maze test.
Old (18-month-old) mice were administered ETP69. Both a neurodegenerative model (AD+) and wild type siblings were tested. Mice were treated with i.p. injection of ETP69 [E; 10 mg/kg dissolved in dimethyl sulfoxide (DMSO)].

[18] = system: AD+ mice; test: Fear conditioning test; assay type: in vivo
Method: as §2
The results of the Open Field Barnes Maze test indicate hippocampal-based spatial memory. FIG. 7A depicts a schematic of the Barnes Maze Test. […] The results of the fear conditioning test indicate spatial memory.

[19] = read-out: Enzyme % Activity (relative to DMSO controls) Data 1
[20] = read-out: Enzyme % Activity (relative to DMSO controls) Data 2
[21] = NT1721 20 μM, substrate Nucleosomes 0.05 mg/mL

Sequence of SET1b Complex (Q15291 whole entry): as the sequence (Q15291 whole entry, further chain) above
Sequence of SET1b Complex (Q9UBL3 whole entry, further chain): as the sequence (Q9UBL3 whole entry, further chain) above
Sequence of SET1b Complex (Q9UPS6 whole entry): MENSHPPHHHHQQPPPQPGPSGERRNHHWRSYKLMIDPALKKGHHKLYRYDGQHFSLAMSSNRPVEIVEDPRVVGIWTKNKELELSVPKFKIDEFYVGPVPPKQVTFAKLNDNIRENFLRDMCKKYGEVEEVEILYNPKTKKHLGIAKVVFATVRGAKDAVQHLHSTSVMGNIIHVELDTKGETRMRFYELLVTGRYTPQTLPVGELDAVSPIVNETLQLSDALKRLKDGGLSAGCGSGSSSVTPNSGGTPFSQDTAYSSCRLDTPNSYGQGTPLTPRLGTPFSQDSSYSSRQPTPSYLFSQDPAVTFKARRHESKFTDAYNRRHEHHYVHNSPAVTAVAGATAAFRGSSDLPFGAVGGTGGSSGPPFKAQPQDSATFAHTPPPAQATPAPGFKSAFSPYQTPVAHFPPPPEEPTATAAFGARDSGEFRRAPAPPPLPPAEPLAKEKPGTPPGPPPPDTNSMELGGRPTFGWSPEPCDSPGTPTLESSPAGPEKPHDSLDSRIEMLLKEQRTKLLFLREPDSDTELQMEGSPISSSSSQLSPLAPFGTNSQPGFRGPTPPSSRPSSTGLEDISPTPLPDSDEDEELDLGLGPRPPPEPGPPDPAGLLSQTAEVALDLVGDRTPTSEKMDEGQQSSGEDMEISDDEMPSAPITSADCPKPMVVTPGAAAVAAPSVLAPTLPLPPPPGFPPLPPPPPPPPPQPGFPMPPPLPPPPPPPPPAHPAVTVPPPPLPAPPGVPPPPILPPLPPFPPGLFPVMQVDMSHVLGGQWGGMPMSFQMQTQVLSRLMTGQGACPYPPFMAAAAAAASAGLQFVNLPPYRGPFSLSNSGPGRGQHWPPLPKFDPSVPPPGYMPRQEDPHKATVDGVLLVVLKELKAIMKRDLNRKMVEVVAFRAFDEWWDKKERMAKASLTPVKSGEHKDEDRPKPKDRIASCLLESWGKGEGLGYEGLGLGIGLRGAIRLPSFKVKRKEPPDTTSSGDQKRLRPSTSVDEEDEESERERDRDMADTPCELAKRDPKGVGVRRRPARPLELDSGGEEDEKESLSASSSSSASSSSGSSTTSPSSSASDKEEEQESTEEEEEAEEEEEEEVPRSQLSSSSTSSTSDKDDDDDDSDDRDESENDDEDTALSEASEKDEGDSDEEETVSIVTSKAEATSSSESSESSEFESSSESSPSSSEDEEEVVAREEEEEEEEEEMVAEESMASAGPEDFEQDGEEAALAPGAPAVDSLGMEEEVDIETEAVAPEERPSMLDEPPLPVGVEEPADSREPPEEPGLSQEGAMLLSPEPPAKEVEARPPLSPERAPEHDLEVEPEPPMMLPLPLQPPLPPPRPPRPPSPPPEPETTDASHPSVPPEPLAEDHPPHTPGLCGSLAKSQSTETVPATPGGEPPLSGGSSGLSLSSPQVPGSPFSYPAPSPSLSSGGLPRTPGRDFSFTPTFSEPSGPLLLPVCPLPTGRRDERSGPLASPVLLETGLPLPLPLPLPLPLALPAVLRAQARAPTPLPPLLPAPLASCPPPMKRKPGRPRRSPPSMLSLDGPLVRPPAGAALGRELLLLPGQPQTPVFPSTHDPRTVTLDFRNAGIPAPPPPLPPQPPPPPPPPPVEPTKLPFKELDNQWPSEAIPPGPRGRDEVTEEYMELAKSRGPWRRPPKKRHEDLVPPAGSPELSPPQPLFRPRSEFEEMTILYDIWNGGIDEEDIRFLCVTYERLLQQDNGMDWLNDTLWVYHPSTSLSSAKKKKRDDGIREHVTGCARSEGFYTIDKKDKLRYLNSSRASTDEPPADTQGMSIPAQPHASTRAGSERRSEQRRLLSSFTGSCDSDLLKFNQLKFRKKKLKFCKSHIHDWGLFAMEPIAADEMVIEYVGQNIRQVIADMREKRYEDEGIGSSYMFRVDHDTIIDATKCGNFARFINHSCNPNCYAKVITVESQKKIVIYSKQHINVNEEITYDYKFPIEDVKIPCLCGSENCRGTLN
Sequence of SET1b Complex (Q9C005 whole entry, further chain): as the sequence (Q9C005 whole entry, further chain) above

**Q.** For `CN1C(=O)[C@@]23C[C@](C)(C#N)[C@H](c4ccc5c(c4)OCO5)N2C(=O)[C@]1(C)SS3` (racemic) [ETP69, Rac-(3S,6S,7S,8aS)-6-(benzo[d][1,3]dioxol-5-yl)-2,3,7-trimethyl-1,4-dioxohexahydro-6H-3,8a-epidithiopyrrolo[1,2-a]pyrazine-7-carbonitrile], which remaining activity at 20 µM [1, 19] is on record?
**A.** Its remaining activity at 20 µM is 0.6%.

**Q.** And the remaining activity at 20 µM [1, 20]?
**A.** The remaining activity at 20 µM was 0.47%.

**Q.** And the “inhibition relative to DMSO controls” value ([1]; summary of Table 1)?
**A.** The value was “at least 7500”.

**Q.** And the remaining activity at 20 µM [2, 19]?
**A.** Its remaining activity at 20 µM is 84.8%.

**Q.** What about the remaining activity at 20 µM [2, 20] of the same molecule?
**A.** The remaining activity at 20 µM was 80.9%.

**Q.** And the remaining activity at 20 µM [3, 19]?
**A.** The remaining activity at 20 µM was 105%.

**Q.** What about the remaining activity at 20 µM [3, 20] of the same molecule?
**A.** The remaining activity at 20 µM was 108%.

**Q.** And the remaining activity at 20 µM [4, 19]?
**A.** The remaining activity at 20 µM was 4.4%.

**Q.** What about the remaining activity at 20 µM [4, 20] of the same molecule?
**A.** Its remaining activity at 20 µM is 4.4%.

**Q.** And the “inhibition relative to DMSO controls” value ([4]; summary of Table 1)?
**A.** The value was “at least 7500”.

**Q.** And the “pathways of learning, cognition, quantity of neurons, dendritic growth and branching (IPA)” value ([5]; AD+ mice)?
**A.** The value was “significantly activated”.

**Q.** What about the Mapt protein upregulation ([5]; AD+ mice, p=0.0188) of the same molecule?
**A.** Its Mapt protein upregulation is 2.4 fold.

**Q.** And the Gfra2 protein ([5]; ETP69-treated mice, p=0.0056)?
**A.** Its Gfra2 protein is “significantly increased”.

**Q.** What about the Lrrn4 protein upregulation ([5]; ETP69-treated versus DMSO-control AD+ mice, p=0.015) of the same molecule?
**A.** Its Lrrn4 protein upregulation is 1.73 fold.

**Q.** And the “brain neurotrophic factors (NTFs) expression including BDNF, VGF and levodopa” value ([5]; proteome signatures)?
**A.** The value was “induced”.

**Q.** What about the remaining activity at 20 µM [6, 19] of the same molecule?
**A.** Its remaining activity at 20 µM is 8.99%.

**Q.** And the remaining activity at 20 µM [6, 20]?
**A.** The remaining activity at 20 µM was 7.71%.

**Q.** What about the “inhibition relative to DMSO controls” value ([6]; summary of Table 1) of the same molecule?
**A.** Its value is “at least 7500”.

**Q.** What about the “Enzyme % Activity (relative to DMSO controls) Data 1” value [7] of the same molecule?
**A.** The value was 102.54%.

**Q.** What about the “Enzyme % Activity (relative to DMSO controls) Data 2” value [7] of the same molecule?
**A.** The value was 102.95%.

**Q.** What about the remaining activity at 20 µM [8, 19] of the same molecule?
**A.** The remaining activity at 20 µM was 4.23%.

**Q.** What about the remaining activity at 20 µM [8, 20] of the same molecule?
**A.** The remaining activity at 20 µM was 4.97%.

**Q.** What about the “inhibition relative to DMSO controls” value ([8]; summary of Table 1) of the same molecule?
**A.** The value was “at least 7500”.

**Q.** And the “delivery to the brain” value [9]?
**A.** Its value is “good delivery to the brain”.

**Q.** And the remaining activity at 20 µM [10, 19]?
**A.** The remaining activity at 20 µM was 104%.

**Q.** And the remaining activity at 20 µM [10, 20]?
**A.** The remaining activity at 20 µM was 98.5%.

**Q.** And the remaining activity at 20 µM [11, 19]?
**A.** Its remaining activity at 20 µM is 95.7%.

**Q.** What about the remaining activity at 20 µM [11, 20] of the same molecule?
**A.** The remaining activity at 20 µM was 94.7%.

**Q.** And the remaining activity at 20 µM [12, 19]?
**A.** The remaining activity at 20 µM was 40.1%.

**Q.** And the remaining activity at 20 µM [12, 20]?
**A.** Its remaining activity at 20 µM is 37.1%.

**Q.** And the “inhibition relative to DMSO controls” value ([12]; summary of Table 1)?
**A.** Its value is “at least 7500”.

**Q.** And the GFAP [13]?
**A.** The GFAP was “significant decrease”.

**Q.** What about the remaining activity at 20 µM [14, 19] of the same molecule?
**A.** Its remaining activity at 20 µM is 121%.

**Q.** What about the remaining activity at 20 µM [14, 20] of the same molecule?
**A.** Its remaining activity at 20 µM is 123%.

**Q.** And the “Enzyme % Activity (relative to DMSO controls) Data 1” value [15, 21]?
**A.** The value was 5.08%.

**Q.** And the “Enzyme % Activity (relative to DMSO controls) Data 2” value [15, 21]?
**A.** The value was 5.33%.

**Q.** What about the “inhibition relative to DMSO controls” value ([15]; summary of Table 1) of the same molecule?
**A.** Its value is “at least 7500”.

**Q.** And the remaining activity at 20 µM [16, 19]?
**A.** The remaining activity at 20 µM was 19%.

**Q.** And the remaining activity at 20 µM [16, 20]?
**A.** Its remaining activity at 20 µM is 20.4%.

**Q.** What about the “inhibition relative to DMSO controls” value ([16]; summary of Table 1) of the same molecule?
**A.** The value was “at least 7500”.

**Q.** And the “percent alternation and bidirectional movement” value ([17]; color mode, AD+ mice)?
**A.** Its value is “significant increase”.

**Q.** What about the percent alternation ([17]; contrast mode, AD+ mice) of the same molecule?
**A.** Its percent alternation is “significant increase”.

**Q.** And the “colour X-maze spontaneous alternations” value ([17]; old WT mice, single dose 10 mg/kg i.p., p=0.0027)?
**A.** The value was “increased”.

**Q.** And the freezing time [18]?
**A.** The freezing time was “increased”.
